According to patent publication US20180116993A1, “MODULATORS OF FARNESOID X RECEPTOR AND METHODS FOR THE USE THEREOF” (XIAMEN UNIVERSITY, priority 2015, published 2018):
Marks after values point to notes of the source that are not given here.

Columns and labels:
[1] = system: mice with APAP-induced liver injury; assay: Acetaminophen (APAP)-induced liver injury in mouse; assay type: in vivo; conditions: for Liver morphology by H&E staining (FIG. 1): 10 mg/kg (Tschimganine 20 mg/kg) i.p. five days, then APAP, compared to severe liver injury in control group; for expression levels of GPX1 and UGT1α1 in liver: mRNA by RT-PCR; for expression levels of GPX1 and UGT1α1 in liver / activities of serum AST, ALT and LDH: vs vehicle control group, Table 5 (not given); for ALT (U/L): 5 mg/kg i.p. once daily for five days, 8-week age mice, serum, vehicle 786 ± 111
Excerpt: Methods: Acetaminophen (APAP)-induced liver injury in mouse is a commonly used model to study drugs protecting liver. Overdose of APAP causes liver injury by inducing the production of reactive oxygen species and reactive nitrogen species, and excessive consumption of reductive substances such as antioxidant glutathione (GSH), leading to the reduction of GSH in vivo, and the following upregulation of the activities of the aspartate aminotransferase (AST), the alanine aminotransferase (ALT) and the lactate dehydrogenase (LDH), which will result in liver inflammation and necrosis. In this example, the APAP-induced liver injury was used to detect the protection and repair functions of our compounds in liver injury.
One-year or 8-week age mice were maintained under environmentally controlled conditions with free access to standard chow diet and water. Animal experiments were conducted in the barrier facility of the Laboratory Animal Center, Xiamen University, approved by the Institutional Animal Use and Care Committee of Xiamen University, China.
Compounds were solved with DMSO and then prepared to work concentration with 40% HBC (2-hydroxypropyl-β-cyclodextrin) in which the final work concentrations of compounds are 5 mg/kg body weight, 10 mg/kg or 20 mg/kg in 100 μl injection volume and the concentration of DMSO is 10%. Compounds were intraperitoneal (i.p.) injected once daily for five days. For Feroline and Tschimganine, one-year age mice were used in the experiment. For other compounds, 8-week age mice were used. […] For Tschimganine, 20 mg/kg dose of compound was administered to mice. For other compounds, 5 mg/kg dose of compounds were administered to mice. Six hours after the fifth injection, 500 mg/kg body weight of APAP solved in PBS was i.p. injected to the mice. 24 hours later, mice were sacrificed. Part of each liver was fixed in 4% paraformaldehyde, and the liver histology characterization was analyzed by haematoxylin and eosin (H&E) staining with paraffin-embedded sections by standard procedures. Other liver tissues were collected for detecting the GSH levels, and the mRNA expression of genes involved in liver repairing, such as GPX1 and UGT1a1, by RT-PCR. The serums were collected to measure enzymes activities including AST, ALT and LDH. For the synthetic derivatives, ALT and GSH were selected as indicating markers for the function of these compounds.

db/db mice = assay: Serum/blood metabolic parameters in high-fat diet fed db/db mice; assay type: in vivo, mouse
How it was run: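 db/db mice aged 8–10 weeks on high-fat diet received compounds i.p. once daily for 7, 10, 11 or 14 days, then were fasted 6 h and sacrificed. Serum glucose (glucose oxidase), insulin (ELISA), cholesterol, FFA and triglycerides measured by kits; some blood glucose by tail strips after the 6th injection and 16 h fast.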

[2] = system: collagen related genes in mice livers; assay: Liver mRNA levels of collagen related genes in mice of Example 5 (RT-PCR); assay type: in vivo, mouse; conditions: 10 mg/kg; for Relative mRNA level of α-SMA: vehicle 1 ± 0.1; for Relative mRNA level of α1(I) collagen: vehicle 1.1 ± 0.2
Excerpt: NAFLD with excessive fat accumulation in liver will affect the blood and oxygen supplies to liver and the metabolism of liver organ, resulting in amounts of cell swelling, inflammatory infiltration and necrosis in liver. […] The levels of various collagen contents are higher in patients with liver cirrhosis. Masson's staining is a three-color staining protocol used in histology. It is widely used to study hepatic pathologies (cirrhosis). It's an authoritative and classic method to detect the existence and extend of accumulation of the collagen fiber. Sirius Red staining is also presented as a method for collagen determination. In this example, the Masson's staining and […] were performed to detect the collagen deposit in high fat diet fed db/db mice in Example 5. The Masson's staining kit (Nanjing Jiancheng Engineering Institute, China) was used for the staining of liver sections in Example 5. The Sirius red staining is performed as standard procedure. RT-PCR was used detect the expression of collagen and related genes such as α1(I) collagen, α2(I)collagen, α-SMA and MCP-1 in mice livers.

[3] = system: inflammatory cytokines in tissues of db/db mice; assay: Inflammatory cytokine mRNA levels in tissues of high-fat diet fed db/db mice (RT-PCR); assay type: in vivo, mouse; conditions: 5 mg/kg; for mRNA level of iNOS (fold), Liver tissue: vehicle 1.06 ± 0.14; for mRNA level of iNOS (fold), Colon tissue: vehicle 1.12 ± 0.23
How it was run: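 Cytokine and marker transcripts (iNOS, IFNγ, TGFβ, TNFα, COX2, IL-1β, IL-6, SAA1, MIP-1α, CD36) quantified by RT-PCR in liver, kidney and white adipose tissue of high-fat diet fed db/db mice.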

SOD2 = assay: mRNA level of antioxidant gene SOD2 in livers of db/db mice; assay type: in vivo, mouse; conditions: 10 mg/kg, vehicle 1 ± 0.3

| Compound | Liver morphology by H&E staining (FIG. 1) [1] | expression levels of GPX1 and UGT1α1 in liver [1] | activities of serum AST, ALT and LDH [1] | Relative mRNA level of α-SMA [2] | Relative mRNA level of α1(I) collagen [2] | ALT (U/L) ([1]; then APAP 500 mg/kg) | mRNA level of iNOS (fold), Liver tissue [3] | mRNA level of iNOS (fold), Colon tissue [3] | mRNA level of SOD2 (fold) (SOD2) | other results |
| --- | --- | --- | --- | --- | --- | --- | --- | --- | --- | --- |
| COc1cc(C(=O)O[C@H]2C[C@H]3CC[C@]2(C)C3(C)C)ccc1O [Tschimganine] | almost normal liver morphology | significantly upregulated | dramatically lower | 0.56 ± 0.12^a | 0.6 ± 0.12^a |  |  |  |  | Hepatic GSH (μM/g liver tissue) ([1]; 20 mg/kg i.p. once daily for five days, then APAP 500 mg/kg, one-year age mice, vehicle 8.0 ± 2.8): 14.9 ± 0.6^b μM/g liver tissue; Serum Insulin (ng/ml) (db/db mice; 10 mg/kg for 7 days, vehicle 12 ± 3): 4.7 ± 0.4^b ng/ml; Serum Glucose (mg/dl) (db/db mice; 10 mg/kg for 7 days, vehicle 521 ± 54): 342 ± 36^a mg/dl; Relative mRNA level of MCP-1 ([2]; vehicle 1.2 ± 0.2): 0.62 ± 0.13^a |
| Nc1ccc(C(=O)OC2CCCCCCC2)cc1 [XD-16, cyclooctyl 4-aminobenzoate] |  |  |  |  |  | 127 ± 46 ^b U/L | 0.39 ± 0.18^a fold | 0.42 ± 0.22^a fold | 1.5 ± 0.1 ^b fold | Serum Glucose (mg/dl) (db/db mice; 10 mg/kg, treat for 10 days, vehicle 527 ± 63): 404 ± 46^a mg/dl |
| CC1(C)[C@@H]2CC[C@@]1(C)[C@@H](OC(=O)c1ccc(O)cc1)C2 [Tschimgine] | almost normal liver morphology | significantly upregulated | dramatically lower | 0.47 ± 0.1^a | 0.6 ± 0.13^a |  |  |  |  | Serum Triglyceride (mg/dl) (db/db mice; 10 mg/kg for 11 days, vehicle 96 ± 16): 38 ± 8^a mg/dl; Serum Cholesterol (mg/dl) (db/db mice; 10 mg/kg for 11 days, vehicle 121 ± 13): 96 ± 3^a mg/dl; Serum FFA (μM) (db/db mice; 10 mg/kg for 11 days, vehicle 371 ± 27): 302 ± 21^a μM; Blood Glucose (mg/dl) (db/db mice; 10 mg/kg, 11 days, tail blood after the 6th injection and 16 h fast, vehicle 452 ± 24): 252 ± 54^b mg/dl; Relative mRNA level of α2(I) collagen ([2]; vehicle 1.1 ± 0.1): 0.75 ± 0.9^a |
| Cc1cc(C(=O)OC2CC3CCC2(C)C3(C)C)ccc1N (stereo not drawn) [XD-4, 1,7,7-trimethyl-bicyclo[2.2.1]-heptan-2-yl 4-amino-3-methylbenzoate] |  |  |  |  |  | 236 ± 65 ^a U/L | 0.41 ± 0.1^a fold | 0.53 ± 0.37^a fold | 1.6 ± 0.1 ^b fold |  |
| Cc1cc(C(=O)OC2CCCCCCC2)ccc1O [XD-17, cyclooctyl 4-hydroxy-3-methylbenzoate] |  |  |  |  |  | 117 ± 39 ^c U/L |  |  | 1.8 ± 0.3 ^a fold |  |
